Measured values from PubChem BioAssay AID1919015 (Molecular Pharmacology Branch, DTP, NCI, 2023).
Where “and” joins values, the source holds several entries; their conditions need not be identical. Identical values can stand only once.

Tested on: OVCAR-5 complex spheroids with HUVEC/MSC, viability, % test/control
Assay: Anticancer human tumor OVCAR-5 cell line growth inhibition [AhR];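 note: spheroids exposed to compounds for 7 days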;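 for viability, T/C: 100% = DMSO vehicle control wells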
Conditions: for viability, T/C: stronger effect = lower value; active = viability on the fitted dose curve at most 10% of control; inactive = the rest
Procedure, shortened: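 Agents were dosed in half-log steps down from roughly clinical Cmax, or from 10 microM where Cmax was unknown, alone and with AhR antagonists. Read-out: percent test/control growth of tumor spheroids containing HUVEC and MSC stromal cells.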

[1] = curve of first compound, second compound 0.1 µM
[2] = curve of first compound, second compound 0.316 µM
[3] = curve of first compound, second compound 1 µM
[4] = curve of first compound, second compound 3.16 µM
[5] = curve of first compound, second compound 10 µM
[6] = second compound 0.1 µM, first compound 0.0316 µM
[7] = second compound 0.1 µM, first compound 0.1 µM
[8] = second compound 0.1 µM, first compound 0.316 µM
[9] = second compound 0.1 µM, first compound 1 µM
[10] = second compound 0.1 µM, first compound 3.16 µM
[11] = second compound 0.1 µM, first compound 10 µM
[12] = second compound 0.316 µM, first compound 0.0316 µM
[13] = second compound 0.316 µM, first compound 0.1 µM
[14] = second compound 0.316 µM, first compound 0.316 µM
[15] = second compound 0.316 µM, first compound 1 µM
[16] = second compound 0.316 µM, first compound 3.16 µM
[17] = second compound 0.316 µM, first compound 10 µM
[18] = second compound 1 µM, first compound 0.0316 µM
[19] = second compound 1 µM, first compound 0.1 µM
[20] = second compound 1 µM, first compound 0.316 µM
[21] = second compound 1 µM, first compound 1 µM
[22] = second compound 1 µM, first compound 3.16 µM
[23] = second compound 1 µM, first compound 10 µM
[24] = second compound 3.16 µM, first compound 0.0316 µM
[25] = second compound 3.16 µM, first compound 0.1 µM
[26] = second compound 3.16 µM, first compound 0.316 µM
[27] = second compound 3.16 µM, first compound 1 µM
[28] = second compound 3.16 µM, first compound 3.16 µM
[29] = second compound 3.16 µM, first compound 10 µM
[30] = second compound 10 µM, first compound 0.0316 µM
[31] = second compound 10 µM, first compound 0.1 µM
[32] = second compound 10 µM, first compound 0.316 µM
[33] = second compound 10 µM, first compound 1 µM
[34] = second compound 10 µM, first compound 3.16 µM
[35] = second compound 10 µM, first compound 10 µM

NS(=O)(=O)OCC1CC(n2ccc3c(NC4CCc5ccccc54)ncnc32)CC1O (configuration not stated) + Cc1cncc(-c2nc(NCCc3c[nH]c4ccccc34)c3ncn(C(C)C)c3n2)c1
91.8 nM: IC50 [3]
98 nM: IC50 [4]
active: viability, T/C [23] 10.7% | viability, T/C [27] 10.7% | viability, T/C [28] 6.17% | viability, T/C [29] 4.99% | viability, T/C [30] 3.84% | viability, T/C [31] 3.41% | viability, T/C [32] 2.74% | viability, T/C [33] 2.03% | viability, T/C [34] 0.83% | viability, T/C [35] 0.48%
152 nM: IC50 [1]
114 nM: IC50 [2]
< 31.6 nM: IC50 [5]
inactive: viability, T/C [6] 86.4% | viability, T/C [7] 57.5% | viability, T/C [8] 37.2% | viability, T/C [9] 17.6% | viability, T/C [10] 13.1% | viability, T/C [11] 12.2% | viability, T/C [12] 78% | viability, T/C [13] 51.5% | viability, T/C [14] 33% | viability, T/C [15] 16.5% | viability, T/C [16] 13.6% | viability, T/C [17] 12.3% | viability, T/C [18] 69.7% | viability, T/C [19] 47.4% | viability, T/C [20] 31.6% | viability, T/C [21] 16.6% | viability, T/C [22] 11.3% | viability, T/C [24] 64% | viability, T/C [25] 50.2% | viability, T/C [26] 22.7%

COc1ccc([C@@H](O)c2cc(-c3ncnc4cc(N5CCOCC5)ccc34)c(F)cc2Cl)nn1 + Cc1ccccc1N=Nc1ccc(NC(=O)c2ccnn2C)c(C)c1
3750 nM: IC50 [3]
3230 nM: IC50 [5]
inactive: viability, T/C [6] 102% | viability, T/C [7] 101% | viability, T/C [8] 95.5% | viability, T/C [9] 76.3% | viability, T/C [10] 48.4% | viability, T/C [11] 24.1% | viability, T/C [12] 104% | viability, T/C [13] 102% | viability, T/C [14] 97.5% | viability, T/C [15] 76.8% | viability, T/C [16] 49.1% | viability, T/C [17] 27.6% | viability, T/C [18] 109% | viability, T/C [19] 107% | viability, T/C [20] 99.5% | viability, T/C [21] 87.5% | viability, T/C [22] 53.5% | viability, T/C [23] 26% | viability, T/C [24] 113% | viability, T/C [25] 106% | viability, T/C [26] 98.9% | viability, T/C [27] 85.1% | viability, T/C [28] 57.6% | viability, T/C [29] 31.6% | viability, T/C [30] 103% | viability, T/C [31] 98.9% | viability, T/C [32] 96.3% | viability, T/C [33] 76.7% | viability, T/C [34] 51.2% | viability, T/C [35] 22.8%
2980 nM: IC50 [2]
4540 nM: IC50 [4]
2910 nM: IC50 [1]

CC(C)c1c(-c2ccccc2)nc2c(C#N)c[nH]n2c1=O + CC(CO)NC(=O)c1cc(-c2ccc(Cl)cc2)nn(-c2cnn(C)c2)c1=O
inactive: viability, T/C [6] 117% | viability, T/C [7] 111% | viability, T/C [8] 112% | viability, T/C [9] 115% | viability, T/C [10] 114% | viability, T/C [11] 116% | viability, T/C [12] 107% | viability, T/C [13] 117% | viability, T/C [14] 114% | viability, T/C [15] 115% | viability, T/C [16] 116% | viability, T/C [17] 119% | viability, T/C [18] 114% | viability, T/C [19] 121% | viability, T/C [20] 119% | viability, T/C [21] 116% | viability, T/C [22] 117% | viability, T/C [23] 121% | viability, T/C [24] 99% | viability, T/C [25] 108% | viability, T/C [26] 107% | viability, T/C [27] 105% | viability, T/C [28] 111% | viability, T/C [29] 111% | viability, T/C [30] 101% | viability, T/C [31] 105% | viability, T/C [32] 100% | viability, T/C [33] 101% | viability, T/C [34] 103% | viability, T/C [35] 104%
> 10000 nM: IC50 [1] | IC50 [2] | IC50 [3] | IC50 [4] | IC50 [5]

COc1ccc([C@@H](O)c2cc(-c3ncnc4cc(N5CCOCC5)ccc34)c(F)cc2Cl)nn1
2930 nM and 2290 nM and 1850 nM: IC50 (curve of compound)
inactive: viability, T/C (compound 0.0316 µM) 104% and 96.5% and 91.2% | viability, T/C (compound 0.1 µM) 101% and 96.4% and 97.7% | viability, T/C (compound 0.316 µM) 95.6% and 86.5% and 85% | viability, T/C (compound 1 µM) 76.2% and 70.7% and 63.6% | viability, T/C (compound 3.16 µM) 48.4% and 41.8% and 38.3% | viability, T/C (compound 10 µM) 23% and 23.6% and 18.7%

O=C(C=Cc1cccc(S(=O)(=O)Nc2ccccc2)c1)NO + CC(CO)NC(=O)c1cc(-c2ccc(Cl)cc2)nn(-c2cnn(C)c2)c1=O
active: viability, T/C [11] 6.15% | viability, T/C [17] 6.73% | viability, T/C [23] 5.69% | viability, T/C [29] 5.14% | viability, T/C [35] 4.82%
1050 nM: IC50 [1]
875 nM: IC50 [2]
928 nM: IC50 [5]
819 nM: IC50 [4]
inactive: viability, T/C [6] 99.8% | viability, T/C [7] 95.7% | viability, T/C [8] 76% | viability, T/C [9] 52.2% | viability, T/C [10] 23.3% | viability, T/C [12] 101% | viability, T/C [13] 95% | viability, T/C [14] 76.4% | viability, T/C [15] 45.9% | viability, T/C [16] 21% | viability, T/C [18] 108% | viability, T/C [19] 101% | viability, T/C [20] 79.1% | viability, T/C [21] 50% | viability, T/C [22] 22.3% | viability, T/C [24] 103% | viability, T/C [25] 91.9% | viability, T/C [26] 72.4% | viability, T/C [27] 45.7% | viability, T/C [28] 19.9% | viability, T/C [30] 89.4% | viability, T/C [31] 84.2% | viability, T/C [32] 72.4% | viability, T/C [33] 49.3% | viability, T/C [34] 19.8%
995 nM: IC50 [3]
